Results published in patent US7906486B2, “Method of treating or preventing tissue deterioration, injury or damage due to disease of mucosa” (SciClone Pharmaceuticals, Inc., priority 2007, dated 2011).
“And” between values parts separate entries of the source, which are not always exact repeats. Equal entries are not always repeated.

Key:
[1] = system: oral mucositis induced by fractionated radiation (eight doses of 7.5 Gy, left buccal cheek pouch); experiment: Oral mucositis induced by fractionated radiation in hamsters, mucositis scoring (Example 3, SCI-03); format: in vivo, Syrian Golden Hamsters; parameters: key: 0: Pouch completely healthy. No erythema or vasodilation.; 1: Light to severe erythema and vasodilation. No erosion of mucosa.; 2: Severe erythema and vasodilation. Erosion of superficial aspects of mucosa leaving denuded areas, but no frank ulceration. Decreased stippling of mucosa.; 3: Formation of off-white ulcers in one or more places. Ulcers may have a yellow/gray due to pseudomembrane. Cumulative size of ulcers should equal about ¼ of the pouch. Severe erythema and vasodilation.; 4: Cumulative seize of ulcers should equal about ½ of the pouch. Loss of pliability. Severe erythema and vasodilation.; 5: Virtually all of pouch is ulcerated. Loss of pliability (pouch can only partially be extracted from mouth)
Source text: (§1) The fractionated radiation model in hamsters, developed by the Principal Investigator, has proven to be an accurate, efficient and cost-effective technique to provide a preliminary evaluation of anti-mucositis compounds. In this model, hamsters receive 8 doses of 7.5 Gy to the left cheek pouch on days 0, 1, 2, 3, […], rather than the single dose of 40 Gy on day 0 that is used in acute radiation studies. The rationale for using this scheduling for the radiation is that it more closely resembles the clinical courses of radiotherapy given to cancer patients. The course of mucositis in this model is well defined and results in peak mucositis scores approximately 14-16 days following radiation. Mortality (generally from the side effects of anesthesia) in the fractionated radiation model is slightly higher than that seen in the acute radiation model and group sizes are increased (to 10 per group) to allow for this.
(§2) Forty (40) male Syrian Golden Hamsters were given eight doses of radiation of 7.5 Gy each directed to their left buccal cheek pouch on days 0, 1, 2, 3, 6, 7, 8 and 9. This was accomplished by anesthetizing the animals and everting the left buccal pouch, while protecting the rest of the animal's bodies with a lead shield. Test materials were given by sub-cutaneous injection once daily as detailed in Table 9. Mucositis was evaluated clinically starting on day 7, and continuing on alternate days until day 35. Test articles were given as outlined Table 9, Groups 1 and 2 were dosed from Day −1 to Day 29, Group 3 was dosed on the days of radiation only, Group 4 was dosed on the days between Day −15 and Day 29 on which no radiation is given (Day −1, Day 4, Day 5 and Day 10 to Day 29).
(§3) The effect on mucositis of each drug treatment compared to placebo was assessed according to the following parameters:
(§4) On each evaluation day, the number of animals with a blinded mucositis score of ≧3 in each drug treatment group was compared to the control group. Differences were compared on a cumulative basis and statistical significance was determined by chi-square analysis. Efficacy, in this analysis, is defined by a significant reduction in the number of days that a group of animals had ulcerations (scores ≧3) when compared to the control group.
(§5) For each evaluation day the scores of the control group were compared to those of the treated groups using non-parametric rank sum analysis. Treatment success was considered as a statistically significant lowering of scores in the treated group on 2 or more days from day 6 to day 28.
as §2, with “daily at 8:00 am” for “daily”, “9. […]” for “9. Mucositis was evaluated clinically starting on day 7, and continuing on alternate days until day 35.”, “2 was” for “2 were”, “radiation only (days 0-3 and days 6-10),” for “radiation only,”, “Day −1” for “Day −15”, “Day 4 to” for “Day 4,”
(§6) Radiation was generated with a Philips 160 kVp (kilovolt potential) (18.75-ma) X-ray source at a focal distance of 30 cm, with a 3.0 mm hardened Al filtration system. Irradiation was targeted to the left buccal pouch mucosa at a rate of 3.32 Gy/minute. […] Using this calibration, the energy received by each animal at each radiation dose was approximately 64.5 nC (nanoCoulombs) at each time point. Prior to irradiation, animals were anesthetized with an intraperitoneal injection of ketamine (160 mg/kg) and xylazine (8 mg/kg). The left buccal pouch was everted, fixed and isolated using a lead shield.
(§7) The mucositis score, weight change and survival were measured throughout the study as described above. […]

[2] = system: oral mucositis induced by fractionated radiation (eight doses of 7.5 Gy, left buccal cheek pouch); experiment: as above; format: in vivo, Syrian Golden Hamsters; parameters: key: 0: Pouch completely healthy. No erythema or vasodilation.; 1: Light to severe erythema and vasodilation. No erosion of mucosa.; 2: Severe erythema and vasodilation. Erosion of superficial aspects of mucosa leaving denuded areas. Decreased stippling of mucosa.; 3: Formation of off-white ulcers in one or more places. Ulcers may have a yellow/gray due to pseudomembrane. Cumulative size of ulcers should equal about ¼ of the pouch. Severe erythema and vasodilation.; 4: Cumulative seize of ulcers should equal about ½ of the pouch. Loss of pliability. Severe erythema and vasodilation.; 5: Virtually all of pouch is ulcerated. Loss of pliability (pouch can only partially be extracted from mouth)
Source text: as §1, §2, §3, §4, §5
as §2, with “daily at 8:00 am” for “daily”, “9. […]” for “9. Mucositis was evaluated clinically starting on day 7, and continuing on alternate days until day 35.”, “2 was” for “2 were”, “radiation only (days 0-3 and days 6-10),” for “radiation only,”, “Day −1” for “Day −15”, “Day 4 to” for “Day 4,”
as §6, §7

[3] = Group 2, day 13, individual animals (two score lines each)
[4] = Group 2, day 23, individual animals (two score lines each)
[5] = Group 2, day 25, individual animals (two score lines each)
[6] = Group 2, day 27, individual animals (two score lines each)
[7] = Group 2, day 31, individual animals (two score lines each)
[8] = Group 2, day 33, individual animals (two score lines each)

N[C@H](CCC(=O)N[C@@H](Cc1c[nH]c2ccccc12)C(=O)O)C(=O)O [SCV-07, γ-D-glutamyl-L-tryptophan]
Mucositis score [1, 3]: 2 | Mucositis score [1, 4]: 2 | Mucositis score [1, 5]: 2 | Mucositis score [1, 6]: 2 | Mucositis score [1, 7]: 2 | Mucositis score [1, 8]: 2 | Mucositis score ([2]; Group 2, day 7, individual animals (two score lines each)): 0 | Mucositis score ([2]; Group 2, day 9, individual animals (two score lines each)): 1 (5×) and 0 (2×) | Mucositis score ([2]; Group 2, day 11, individual animals (two score lines each)): 1 | Mucositis score [2, 3]: 3 | Mucositis score ([2]; Group 2, day 15, individual animals (two score lines each)): 3 | Mucositis score ([2]; Group 2, day 17, individual animals (two score lines each)): 3 | Mucositis score ([2]; Group 2, day 21, individual animals (two score lines each)): 3 | Mucositis score [2, 4]: 3 | Mucositis score [2, 5]: 3 | Mucositis score [2, 6]: 3 | Mucositis score [2, 7]: 0 (2×) and 1 (3×) | Mucositis score [2, 8]: 1 | Mucositis score ([2]; Group 2, day 35, individual animals (two score lines each)): 1 (3×) and 0 (4×)
